The text below walks through data of patent publication US20250171438A1 (Agios Pharmaceuticals, Inc., priority 2022, published 2025).

Read-outs that look alike come from different tables or passages of the source. Bounds are passed on as bounds.

The target in this assay is T1, human PAH with the R408W mutation (Homo sapiens, UniProt P00439, R408W).
T1 construct: expressed in transfected cells
T1 sequence (P00439 1-452 R408W): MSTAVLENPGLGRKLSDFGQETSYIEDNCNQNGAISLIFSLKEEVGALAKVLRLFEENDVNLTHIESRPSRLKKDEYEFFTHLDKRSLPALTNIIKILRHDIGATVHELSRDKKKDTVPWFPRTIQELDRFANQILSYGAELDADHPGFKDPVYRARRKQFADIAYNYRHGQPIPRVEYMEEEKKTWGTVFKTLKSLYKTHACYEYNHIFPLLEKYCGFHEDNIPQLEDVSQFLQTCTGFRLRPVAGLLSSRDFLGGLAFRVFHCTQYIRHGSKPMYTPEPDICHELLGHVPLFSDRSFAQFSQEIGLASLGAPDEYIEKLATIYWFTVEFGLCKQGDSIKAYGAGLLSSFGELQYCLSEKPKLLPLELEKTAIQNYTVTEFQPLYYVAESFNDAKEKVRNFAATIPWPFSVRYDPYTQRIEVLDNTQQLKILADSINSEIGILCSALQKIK
Put plainly: Cell Based Phenylalanine Flux Assay. Further details: scale not given here. Particulars: A375 cells expressing human R408W PAH, 13C-Tyrosine by LC-MS, average where tested multiple times.

[1] abbreviates: 24 hrs compound incubation, read-out: AC50.
Setting [2] is: 24 hrs with compound, read-out: AC50.

As for `O=C(c1scnc1C1CC1)N1CCc2[nH]cnc2[C@@H]1c1nc2ccccc2s1` [Example 1388, (R)-(4-(benzo[d]thiazol-2-yl)-6,7-dihydro-1H-imidazo[4,5-c]pyridin-5(4H)-yl)(4-cyclopropylthiazol-5-yl)methanone], the AC50 under setting [1] fell in the range of 1000 to 5000 nM.

Turning to `O=C(c1cnn(CC(F)(F)F)c1C(F)F)N1CCc2[nH]cnc2[C@H]1c1nc2c(F)cccc2s1` [Example 1975], the AC50 under setting [1] was in the range of 1000 to 5000 nM.

`CC(=O)N1CCc2[nH]cnc2[C@H]1c1nc2ccccc2s1` (single isomer, unassigned): the AC50 under setting [2] lay in the range of 1000 to 5000 nM.

On to `O=C(c1ncn2ccccc12)N1CCc2[nH]cnc2C1c1nc2ccccc2[nH]1` (centres unmarked), for which the AC50 under setting [2] is > 5000 nM.

For `O=C(c1oc(NC2CC2)nc1C(F)(F)F)N1CCc2[nH]cnc2[C@H]1c1nc2c(F)cccc2s1` [Example 1595], the AC50 under setting [1] was < 500 nM.

`Cn1cc(-c2cccc(C(=O)N3CCc4[nH]cnc4[C@H]3c3nc4ccccc4s3)c2)cn1` (single isomer, unassigned): under setting [2], the concentration at half-maximal activity (AC50) is 1000 to 5000 nM.

Consider `O=C(c1ccno1)N1CCc2[nH]cnc2[C@@H]1c1nc2ccccc2s1` [Example 1124, (R)-(4-(benzo[d]thiazol-2-yl)-6,7-dihydro-1H-imidazo[4,5-c]pyridin-5(4H)-yl)(isoxazol-5-yl)methanone], for which, under setting [1], the half-maximal activity concentration (AC50) was > 5000 nM.

With `CC(C)(O)c1cc(C(=O)N2CCc3[nH]cnc3C2c2nc3ccccc3s2)on1` (centres unmarked), the AC50 under setting [2] was in the range of 1000 to 5000 nM.

For the compound `O=C(c1ocnc1C(F)F)N1CCc2[nH]cnc2C1c1nc2ccccc2[nH]1` (centres unmarked), the AC50 result (24 hrs with compound) is “E, E”.

`O=C(c1cnn2ccc(Br)cc12)N1CCc2[nH]cnc2[C@@H]1c1nc2cc(F)ccc2s1` [Example 1282, (R)-(5-bromopyrazolo [1,5-a]pyridin-3-yl)(4-(5-fluorobenzo[d]thiazol-2-yl)-6,7-dihydro-1H-imidazo[4,5-c]pyridin-5(4H)-yl)methanone]: the AC50 under setting [1] fell in the range of 1000 to 5000 nM.

For the compound `O=C(CCC1CC1)N1CCc2[nH]cnc2[C@@H]1c1nc2ccc(F)cc2[nH]1` [Example 961, (R)-3-cyclopropyl-1-(4-(6-fluoro-1H-benzo[d]imidazol-2-yl)-6,7-dihydro-1H-imidazo[4,5-c]pyridin-5(4H)-yl)propan-1-one], the AC50 under setting [1] was > 5000 nM.

In the case of `O=C(Cc1nccs1)N1CCc2[nH]cnc2C1c1nc2cccc(F)c2s1` (centres unmarked), the AC50 under setting [2] was > 5000 nM.

With `O=C(c1ocnc1C1CC1)N1CCCC2NC=NC2[C@H]1c1nc2ccccc2s1` (stereo partly drawn) [Example 2167, ((4S)-4-(benzo[d]thiazol-2-yl)-3a,4,6,7,8,8a-hexahydroimidazo[4,5-c]azepin-5(1H)-yl)(4-cyclopropyloxazol-5-yl)methanone], the AC50 under setting [1] was < 500 nM.

For the compound `Cc1cc(-c2nnc(C(=O)N3CCc4[nH]cnc4[C@H]3c3nc4ccccc4s3)o2)nn1C` [Example 1944], the AC50 under setting [1] fell in the range of 500 to 1000 nM.

As for `CC(F)(F)c1ncoc1C(=O)N1CCc2[nH]cnc2[C@H]1c1nc2c(F)cccc2s1` [Example 2007], the AC50 under setting [1] was < 500 nM.

`O=C(c1nnc(-c2c[nH]nc2C(F)(F)F)o1)N1CCc2[nH]cnc2[C@H]1c1nc2ccccc2s1` [Example 1965]: under setting [1], the AC50 was 500 to 1000 nM.

As for `c1ccc2[nH]c([C@@H]3c4nc[nH]c4CCN3Cc3nccs3)nc2c1` (single isomer, unassigned) [Example 927], the half-maximal activity concentration (AC50) under setting [1] is < 500 nM.

Take `O=C(c1cncs1)N1CCc2[nH]cnc2C1c1nc2ccc(Cl)cc2[nH]1` (centres unmarked): the AC50 under setting [2] was > 5000 nM.

Consider `O=C(c1cnn2ccccc12)N1CCc2[nH]cnc2[C@@H]1c1nc2ccc(Cl)cc2[nH]1` [Example 937, (R)-(4-(6-chloro-1H-benzo[d]imidazol-2-yl)-6,7-dihydro-1H-imidazo[4,5-c]pyridin-5(4H)-yl)(pyrazolo[1,5-a]pyridin-3-yl)methanone], for which, under setting [1], the AC50 lay within 1000 to 5000 nM.

For the compound `Cc1nc(CCN(C)C)oc1C(=O)N1CCc2[nH]cnc2[C@H]1c1nc2ccccc2s1` [Example 1659], the AC50 under setting [1] is 1000 to 5000 nM.

As for `O=C(CCc1nc2ccccc2o1)N1CCc2[nH]cnc2C1c1nc2ccccc2[nH]1` (centres unmarked), the AC50 under setting [2] fell in the range of 1000 to 5000 nM.

In the case of `COc1cccc(CCCC(=O)N2CCc3[nH]cnc3[C@@H]2c2nc3ccccc3s2)c1` [Example 1014, (R)-1-(4-(benzo[d]thiazol-2-yl)-6,7-dihydro-1H-imidazo[4,5-c]pyridin-5(4H)-yl)-4-(3-methoxyphenyl)butan-1-one], the AC50 under setting [1] was > 5000 nM.

In the case of `N#Cc1nc(-c2ccccn2)oc1C(=O)N1CCc2[nH]cnc2[C@@H]1c1nc2ccccc2s1` [Example 1713, (R)-5-(4-(benzo[d]thiazol-2-yl)-4,5,6,7-tetrahydro-1H-imidazo[4,5-c]pyridine-5-carbonyl)-2-(pyridin-2-yl)oxazole-4-carbonitrile], the concentration at half-maximal activity (AC50) under setting [1] was > 5000 nM.

On to `O=C(c1cn(CC(F)(F)F)nc1C(F)F)N1CCc2[nH]cnc2[C@@H]1c1nc2ccccc2s1` [Example 1986, (R)-(4-(benzo[d]thiazol-2-yl)-6,7-dihydro-1H-imidazo[4,5-c]pyridin-5(4H)-yl)(3-(difluoromethyl)-1-(2,2,2-trifluoroethyl)-1H-pyrazol-4-yl)methanone], for which, under setting [1], the AC50 is 1000 to 5000 nM.

Consider `O=C(c1cnn2cc(-c3ccccn3)ccc12)N1CCc2[nH]cnc2[C@@H]1c1nc2ccccc2s1` [Example 1212, (R)-(4-(benzo[d]thiazol-2-yl)-6,7-dihydro-1H-imidazo[4,5-c]pyridin-5(4H)-yl)(6-(pyridin-2-yl)pyrazolo[1,5-a]pyridin-3-yl)methanone], for which the AC50 under setting [1] was > 5000 nM.

`O=C(c1nnc(C2CC2)o1)N1CCc2[nH]cnc2[C@@H]1c1nc2ccccc2s1` [Example 1364, (R)-(4-(benzo[d]thiazol-2-yl)-6,7-dihydro-1H-imidazo[4,5-c]pyridin-5(4H)-yl)(5-cyclopropyl-1,3,4-oxadiazol-2-yl)methanone]: the concentration at half-maximal activity (AC50) under setting [1] was in the range of 1000 to 5000 nM.

With `CC(C)(O)Cn1cc(C(=O)N2CCc3[nH]cnc3C2c2nc3c(F)cccc3s2)cn1` (centres unmarked), the AC50 under setting [2] lay within 1000 to 5000 nM.

Take `O=C(c1nc2c(F)cccc2s1)N1CCc2[nH]cnc2[C@H]1c1nc2ccccc2s1` [Example 1092]: under setting [1], the AC50 is 500 to 1000 nM.

For the compound `Cc1nnc(C(=O)N2CCc3[nH]cnc3C2c2nc3cc(F)ccc3s2)s1` (centres unmarked), the half-maximal activity concentration (AC50) under setting [2] was in the range of 1000 to 5000 nM.

Regarding `O=C(c1cn[nH]c1Cl)N1CCc2[nH]cnc2[C@@H]1c1nc2c(F)cccc2s1` [Example 1861, (R)-(5-chloro-1H-pyrazol-4-yl)(4-(4-fluorobenzo[d]thiazol-2-yl)-6,7-dihydro-1H-imidazo[4,5-c]pyridin-5(4H)-yl)methanone], under setting [1], the AC50 was 1000 to 5000 nM.

With `O=C(c1nnc(-c2ccc(C(F)(F)F)cn2)o1)N1CCc2[nH]cnc2[C@@H]1c1nc2c(F)cccc2s1` [Example 1847, (R)-(4-(4-fluorobenzo[d]thiazol-2-yl)-6,7-dihydro-1H-imidazo[4,5-c]pyridin-5(4H)-yl)(5-(5-(trifluoromethyl)pyridin-2-yl)-1,3,4-oxadiazol-2-yl)methanone], the AC50 under setting [1] is 1000 to 5000 nM.

Turning to `O=C(c1cnn(-c2ccccn2)c1Cl)N1CCc2[nH]cnc2[C@@H]1c1nc2c(F)cccc2s1` [Example 1766, (R)-(5-chloro-1-(pyridin-2-yl)-1H-pyrazol-4-yl)(4-(4-fluorobenzo[d]thiazol-2-yl)-6,7-dihydro-1H-imidazo[4,5-c]pyridin-5(4H)-yl)methanone], under setting [1], the AC50 was 1000 to 5000 nM.

Usually AC50 stands for the concentration giving half of the maximal activity seen.
